Earlier results as cited in paper PMC8504815 (Clinical and Translational Science, 2021).

Test system: basophils
Conditions: doses >=200 mg; not sustained beyond; cited from earlier work

For `C[C@H]1CN(C2COC2)CCN1c1ccc(Nc2cc(-c3ccnc(N4CCn5c(cc6c5CC(C)(C)C6)C4=O)c3CO)cn(C)c2=O)nc1` [fenebrutinib], the “duration of more than 90% CD63 inhibition” value is given as at most 8 h.
